What was measured:
[1] = test system: CXCR3^+CD8^+ T cells in the tumor microenvironment; test: Clinical trial NCT02688712: immunofluorescence of rectal tumor biopsies, baseline vs day 15; type: in vivo, human; conditions: rectal cancer patient biopsies, baseline vs day 15, FIG. 12D-E
From the text: FIGS. 12A-12E are a series of panels showing TGFβ-mediated suppression of CXCR3-dependent CD8^+ T cell chemotaxis is relieved by LY2157299 in human patients with rectal cancer. […] FIG. 12B illustrates the clinical trial schema for a phase II clinical trial of rectal cancer patients and sample collection intervals. Patients receive two cycles of LY2157299 on days 1-14 and again on days 30-43 while receiving standard of care chemoradiation on days 15-57 prior to surgery. […] Patients are grouped by nodal status following neoadjuvant treatment (ypN). On the right, percent change in frequency of CXCR3^+CD3^+CD4^− T cells between days 1 and 15 is shown versus the neoadjuvant rectal (NAR) score. […] Each patient is shown (thin gray lines) along with the mean of all patients (thick black line). […]
To determine the clinical relevance of our data, the expression of CXCR3 in human patients was interrogated. […] Therefore, the CD4^+ T cell panel was used and back gated on CD45^+CD3^+CD4^− T cells, the majority of which are CD8^+ T cells (on average 65% of CD45^+CD3^+CD4^− cells were CD8^+ T cells using the T effector and memory panel which has CD45, CD3, CD4, and CD8, but not CXCR3), and calculated CXCR3 expression. […] Therefore, forceps-biopsy specimens obtained by proctoscopy at baseline and day 15 were evaluated for alterations in CXCR3^+CD8^+ T cells.

[2] = test system: Smad2 (ALK5 signaling) in tumor tissue; test: phospho-SMAD2 / CD8a co-immunofluorescence of tumor sections at day 14; type: in vivo, mouse; conditions: day 14, one day post-LY treatment, specifically in CD8α^+ cells, FIG. 1C
Description: FIGS. 1A-1D are a series of panels showing that the TGFβR1 antagonist LY2157299 enhances chemo-radiation efficacy dependent on CD8α^+ cells in CT26 tumors. FIG. 1A is a treatment schema in the CT26 tumor model. Six to eight week old BALB/c mice were implanted subcutaneously in the left flank with 2×10^5 CT26 tumor cells. Seven days following implant, animals were randomized based on tumor size, and vehicle control or LY2157299 compound were administered by oral gavage twice daily every 12 hours at 150 mg/kg for 7 consecutive days. At day 14, some mice received five consecutive radiation treatments of 5 Gy targeted to tumor tissue along with 25 mg/kg injections of 5-fluorouracil (5FU) chemotherapy administered intraperitoneally on days 14, 16, and 18. LY treatment groups resumed BID oral dosing from days 21-27. Mean tumor growth (i) and survival (ii) were assessed three times per week up to 100 days or death (FIG. 1B). […] Arrows identify pSMAD2^+CD8^+ cells in vehicle mice. […] NS=not significant, *=p<0.05, **=p<0.01, ***=p<0.001.
Immunofluorescence: Human rectal cancer biopsies were fixed in 10% NBF overnight and mouse tumors were fixed in zinc fixative overnight prior to tissue processing and paraffin embedding followed by sectioning cut at 5 microns for immunofluorescent staining. […]
Production of TGFβ by cells within the tumor was evaluated.

ALK4 = target: T1, ALK4 (Homo sapiens, UniProt P36896); conditions: reported in Lahn et al., Drug Des. Devel. Ther. 2015; cited from earlier work
T1 sequence (P36896 24-505): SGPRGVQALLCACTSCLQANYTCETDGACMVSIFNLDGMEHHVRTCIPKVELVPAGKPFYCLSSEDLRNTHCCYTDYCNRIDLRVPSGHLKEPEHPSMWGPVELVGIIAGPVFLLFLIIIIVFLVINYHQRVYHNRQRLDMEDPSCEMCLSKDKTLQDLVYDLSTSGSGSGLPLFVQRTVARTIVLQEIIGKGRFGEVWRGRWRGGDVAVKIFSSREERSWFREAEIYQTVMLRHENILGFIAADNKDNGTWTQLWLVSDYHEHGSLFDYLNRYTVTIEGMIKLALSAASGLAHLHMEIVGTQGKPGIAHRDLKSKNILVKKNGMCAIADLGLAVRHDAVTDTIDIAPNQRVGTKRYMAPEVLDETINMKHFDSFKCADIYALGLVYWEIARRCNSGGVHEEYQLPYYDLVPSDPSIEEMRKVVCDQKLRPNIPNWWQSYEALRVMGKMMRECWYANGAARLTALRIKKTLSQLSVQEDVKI

SMILES: Cc1cccc(-c2nn3c(c2-c2ccnc4ccc(C(N)=O)cc24)CCC3)n1 [LY2157299]
- percentage CXCR3^+CD8^+ T cells in the tumor microenvironment [1]: increase in the percentage CXCR3^+CD8^+ T cells
- phosphorylation and nuclear translocation of Smad2 in tumor sections [2]: reduced phosphorylation and nuclear translocation
- Kd for ALK4 compared with ALK5 (ALK4): lower Kd for ALK4 than ALK5
